The values below come from US6852702B2, “9a-N-[N′-(phenylsulfonyl)carbamoyl] derivatives of 9-deoxo-9-dihydro-9a-aza-9a-homoerythromycin A and of 5-O-desosaminyl-9-deoxo-9-dihydro-9a-aza-9a-homoerythronolide A” (Pliva D.D., priority 2002, dated 2005).

Each structure is given as a SMILES string. Values after ≈ are worked out from the molar mass of the structure shown.

The assay has as its system Streptococcus pneumoniae ATCC 6305. The assay is described as follows: MIC by dilution method on microplates (NCCLS M7-A2). The format is cell-based. The following applies: in vitro. As for the experimental part: Minimal inhibitory concentrations (MIC, in μg/ml) are determined by dilution method on microplates according to recommendations of National Committee for Clinical Laboratory Standards (NCCLS, M7-A2). So e.g. the minimal inhibitory concentration on Streptococcus pneumoniae ATCC 6305 for the compounds from Examples 1 and 4 is 2 μg/ml and for compounds from Examples 2 and 3 is 1 μg/ml. Thus, they can be used for disinfection of rooms, surgical instruments and people as well as therapeutic agents in the treatment of infective diseases in animals, specially mammals, or humans that are caused by a wide spectrum of gram-positive bacteria, microorganisms or generally pathogenic microorganisms which are sensitive to the compounds of the formula 1. For this purpose the above compounds or their pharmaceutically acceptable salts with acids may be used orally in usual doses from 0.2 mg/kg body weight per day to about 250 mg/kg/day, most frequently from 5-50 mg/kg/day, or parenterally in the form of subcutaneous or intramuscular injections.
Regarding `CCC1OC(=O)C(C)C(OC2CC(C)(OC)C(O)C(C)O2)C(C)C(OC2OC(C)CC(N(C)C)C2O)C(C)(O)CC(C)CN(C(=O)NS(=O)(=O)c2ccccc2)C(C)C(O)C1(C)O` (stereo not shown) [Example 4, 9-Deoxo-9-dihydro-9a-N-[N′-(benzenesulfonyl)carbamoyl]-9a-aza-9a-homoerythromycin A], the “minimal inhibitory concentration (MIC)” value was 2 µg/mL (≈ 2.18 µM).

On to `CCC1OC(=O)C(C)C(OC2CC(C)(OC)C(O)C(C)O2)C(C)C(OC2OC(C)CC(N(C)C)C2O)C(C)(O)CC(C)CN(C(=O)NS(=O)(=O)c2ccccc2C)C(C)C(O)C1(C)O` (stereo not shown) [Example 3, 9-Deoxo-9-dihydro-9a-N-[N′-(o-toluenesulfonyl)carbamoyl]-9a-aza-9a-homoerythromycin A], for which the “minimal inhibitory concentration (MIC)” value was determined as 1 µg/mL (≈ 1.07 µM).

Regarding `CCC1OC(=O)C(C)C(OC2CC(C)(OC)C(O)C(C)O2)C(C)C(OC2OC(C)CC(N(C)C)C2O)C(C)(O)CC(C)CN(C(=O)NS(=O)(=O)c2ccc(Cl)cc2)C(C)C(O)C1(C)O` (stereo not shown) [Example 1, 9-Deoxo-9-dihydro-9a-N-[N′-(4-chlorobenzenesufonyl)carbamoyl]-9a-aza-9a-homoerythromycin A], the “minimal inhibitory concentration (MIC)” value was determined as 2 µg/mL (≈ 2.1 µM).

Consider `CCC1OC(=O)C(C)C(OC2CC(C)(OC)C(O)C(C)O2)C(C)C(OC2OC(C)CC(N(C)C)C2O)C(C)(O)CC(C)CN(C(=O)NS(=O)(=O)c2ccc(C)cc2)C(C)C(O)C1(C)O` (stereo not shown) [Example 2, 9-Deoxo-9-dihydro-9a-N-[N′-(p-toluenesulfonyl)carbamoyl]-9a-aza-9a-homoerythromycin A], for which the “minimal inhibitory concentration (MIC)” value was 1 µg/mL (≈ 1.07 µM).
